Test [1] addresses Human CB2R (Cannabanoid receptor 2) (Homo sapiens (Human), UniProt P34972). Put plainly: CB-2 in vitro cAMP (HTRF) assay in HEK-293 cells. Type of test: cell-based. As to conditions: HEK-293 cells stably transfected with human CB2R, 250 nM Forskolin, mean where tested more than once, read-out: CB-2 (HEK_cAMP) EC50. In a few lines: (§1)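 HEK-293 cells stably expressing human CB1 or CB2 plated overnight, then tested in HBSS/5 mM HEPES/0.1% BSA with 0.5 mM IBMX and forskolin (1.5 μM working dilution). Intracellular cAMP quantified by competitive HTRF immunoassay (d2-cAMP, cryptate anti-cAMP) against a cAMP standard curve; compounds as 1/3 serial dilutions from 10 mM DMSO stocks.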
A general note: Time-resolved FRET reads energy transfer from a long-lived donor to a nearby acceptor.

In test [2] the target is Human CB1R (Cannabanoid receptor 1) (Homo sapiens (Human), UniProt P21554). Put plainly: CB-1 in vitro cAMP (HTRF) assay in HEK-293 cells. The class given is cell-based. The settings on record: HEK-293 cells stably transfected with human CB1R, 250 nM Forskolin, mean where tested more than once, read-out: CB-1 (HEK_cAMP) EC50. The method in brief:
as §1

A word on the EC50: it is the midpoint of the concentration-response curve.

Sequence of Human CB1R (Cannabanoid receptor 1) (P21554 whole entry): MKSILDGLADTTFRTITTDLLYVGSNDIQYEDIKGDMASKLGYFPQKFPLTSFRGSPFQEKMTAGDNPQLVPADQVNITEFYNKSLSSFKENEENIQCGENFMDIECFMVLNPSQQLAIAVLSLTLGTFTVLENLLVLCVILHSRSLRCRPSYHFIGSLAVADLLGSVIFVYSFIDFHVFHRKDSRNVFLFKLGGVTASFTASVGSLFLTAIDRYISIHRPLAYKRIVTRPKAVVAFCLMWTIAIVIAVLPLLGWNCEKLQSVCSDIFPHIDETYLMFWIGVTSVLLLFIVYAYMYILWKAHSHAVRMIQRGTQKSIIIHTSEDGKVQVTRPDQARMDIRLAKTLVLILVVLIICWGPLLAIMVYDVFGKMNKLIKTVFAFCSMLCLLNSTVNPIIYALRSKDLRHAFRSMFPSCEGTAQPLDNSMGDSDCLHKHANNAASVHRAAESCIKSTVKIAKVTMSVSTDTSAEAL
Sequence of Human CB2R (Cannabanoid receptor 2) (P34972 whole entry): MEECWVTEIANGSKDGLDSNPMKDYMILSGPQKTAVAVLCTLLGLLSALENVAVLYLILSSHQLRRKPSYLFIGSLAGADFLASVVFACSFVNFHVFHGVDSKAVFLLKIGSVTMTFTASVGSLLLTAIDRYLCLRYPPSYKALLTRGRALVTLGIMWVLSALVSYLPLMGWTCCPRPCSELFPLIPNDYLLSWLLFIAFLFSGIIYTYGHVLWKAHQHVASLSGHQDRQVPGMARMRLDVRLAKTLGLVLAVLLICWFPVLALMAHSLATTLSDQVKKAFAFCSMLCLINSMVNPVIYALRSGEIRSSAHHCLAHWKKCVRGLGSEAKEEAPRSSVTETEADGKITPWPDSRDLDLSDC

Turning to `O=C(O)c1ccc(CN2CCC(c3n[nH]c4ccc(C(c5ccc(Cl)cc5)c5ccc(Cl)cc5)cc34)CC2)cc1` [Compound 221], the EC50 in test [1] was more than 42000 nM; in test [2], 134 nM.
Taken in the same sequence, the figures for `O=C(O)c1ccc(C(c2ccc(Cl)cc2)c2ccc3[nH]nc(C4CCN(S(=O)(=O)C(F)(F)F)CC4)c3c2)cn1` (centres unmarked) [Compound 241] were more than 10000 nM and 1630 nM.
Take `O=C(O)CC(=O)N1CCC(c2n[nH]c3ccc(C(c4ccc(Cl)cc4)c4ccc(Cl)cc4)cc23)CC1` [Compound 41]: the EC50 in test [1] is more than 10000 nM; in test [2] it was 1650 nM.
Taken in the same sequence, the figures for `NC(=O)c1ccccc1C(=O)N1CCC(c2c3cc(C(c4ccc(Cl)cc4)c4ccc(Cl)cc4)ccc3nn2C2CC2)CC1` [Compound 124] were more than 10000 nM and 236 nM.
Regarding `O=C(O)c1ccc(S(=O)(=O)N2CCC(c3c4cc(C(c5ccc(Cl)cc5)c5ccc(Cl)cc5)ccc4nn3C3CC3)CC2)cc1Cl` [Compound 161, 4-(4-(5-(bis(4-chlorophenyl)methyl)-2-cyclopropyl-2H-indazol-3-yl)piperidin-1-ylsulfonyl)-2-chlorobenzoic acid], the EC50 in test [1] amounted to 950 nM; in test [2], 4 nM.
For the molecule `O=C(O)c1ccccc1S(=O)(=O)N1CCC(c2nn(C3CC3)c3ccc(C(c4ccc(Cl)cc4)c4ccc(Cl)cc4)cc23)CC1` [Compound 87], the EC50 in test [1] is more than 10000 nM; in test [2], 6740 nM.
Taken in the same sequence, the figures for `NC(=O)c1cccc(C(=O)N2CCC(c3nn(C4CC4)c4ccc(C(c5ccc(Cl)cc5)c5ccc(Cl)cc5)cc34)CC2)c1` [Compound 98] were more than 10000 nM and 64 nM.
Taken in the same sequence, the figures for `O=C(O)c1ccc(S(=O)(=O)N2CCC(c3c4cc(C(c5ccc(Cl)cc5)c5ccc(Cl)cc5)ccc4nn3C3CC3)CC2)cn1` [Compound 160, 5-(4-(5-(bis(4-chlorophenyl)methyl)-2-cyclopropyl-2H-indazol-3-yl)piperidin-1-ylsulfonyl)picolinic acid] were 4400 nM and 5 nM.
Regarding `NC(=O)c1cccc(C(=O)N2CCC(c3c4cc(C(c5ccc(Cl)cc5)c5ccc(Cl)cc5)ccc4nn3C3CC3)CC2)c1` [Compound 112], the values for the EC50 in test [1] and in test [2] were more than 10000 nM and 62 nM, respectively.
On to `O=C(O)c1cccc(CN2CCC(c3n[nH]c4ccc(C(c5ccc(Cl)cc5)c5ccc(Cl)cc5)cc34)C2)c1` (centres unmarked) [Compound 272], for which the EC50 was more than 10000 nM in test [1] and 333 nM in test [2].
On the same counts, the results for `NC(=O)c1cccc(S(=O)(=O)N2CCC(c3nn(CCO)c4ccc(C(c5ccc(Cl)cc5)c5ccc(Cl)cc5)cc34)CC2)c1` [Compound 82] are more than 10000 nM and 82 nM.
On the same counts, the results for `COC(=O)c1ccc(S(=O)(=O)N2CCC(c3n[nH]c4ccc(C(c5ccc(Cl)cc5)c5ccc(Cl)cc5)cc34)CC2)o1` [Compound 260] are more than 42000 nM and 25 nM.
On the same counts, the results for `O=S(=O)(N1CCC(c2nn(-c3ccc(Cl)c(Cl)c3)c3ccc(C(c4ccc(Cl)cc4)c4ccc(Cl)cc4)cc23)CC1)C(F)(F)F` [Compound 58] are more than 10000 nM and 13 nM.
`O=C(O)COc1ccc(N2CCC(c3nn(C4CC4)c4ccc(C(c5ccc(Cl)cc5)c5ccc(Cl)cc5)cc34)CC2)cc1` [Compound 192]: the EC50 was more than 10000 nM in test [1] and 7080 nM in test [2].
For `CCOC(=O)N1CCC(c2n[nH]c3ccc(C(c4ccc(Cl)cc4)c4ccc(Cl)cc4)cc23)CC1` [Compound 268], the figures for the EC50 in test [1] and in test [2] were 12400 nM and 32 nM, respectively.
Taken in the same sequence, the figures for `O=C(O)c1cc(S(=O)(=O)N2CCC(c3c4cc(C(c5ccc(Cl)cc5)c5ccc(Cl)cc5)ccc4nn3C3CC3)CC2)ccc1Cl` [Compound 168, 5-(4-(5-(bis(4-chlorophenyl)methyl)-2-cyclopropyl-2H-indazol-3-yl)piperidin-1-ylsulfonyl)-2-chlorobenzoic acid] were 7040 nM and 2 nM.
For the molecule `NC(=O)c1ccc(N2CCC(c3n[nH]c4ccc(C(c5ccc(Cl)cc5)c5ccc(Cl)cc5)cc34)CC2)cc1` [Compound 208], the EC50 is more than 10000 nM in test [1] and 68 nM in test [2].
For the molecule `O=C(O)c1cccc(CN2CCC(c3nn(C4CC4)c4ccc(C(c5ccc(Cl)cc5)c5ccc(C(F)(F)F)cc5)cc34)CC2)c1` (centres unmarked) [Compound 248], the figures for the EC50 in test [1] and in test [2] were more than 10000 nM and 41 nM, respectively.
With `NC(=O)CCC(=O)N1CCC(c2nn(C3CC3)c3ccc(C(c4ccc(Cl)cc4)c4ccc(Cl)cc4)cc23)CC1` [Compound 92], the values for the EC50 in test [1] and in test [2] were more than 10000 nM and 29 nM, respectively.
On the same counts, the results for `NC(=O)CCC(=O)N1CCC(c2n[nH]c3ccc(C(c4ccc(Cl)cc4)c4ccc(Cl)cc4)cc23)CC1` [Compound 43] are more than 10000 nM and 169 nM.
In the case of `COC(=O)c1cccc(S(=O)(=O)N2CCC(c3n[nH]c4ccc(C(c5ccc(Cl)cc5)c5ccc(Cl)cc5)cc34)CC2)c1` [Compound 60], the results for the EC50 in test [1] and in test [2] were more than 10000 nM and 65 nM, respectively.
On the same counts, the results for `O=C(O)CCS(=O)(=O)N1CCC(c2nn(C3CC3)c3ccc(C(c4ccc(Cl)cc4)c4ccc(Cl)cc4)cc23)CC1` [Compound 106] are more than 10000 nM and 9200 nM.
Regarding `O=C(O)c1ccc(C(=O)N2CCC(c3nn(C4CC4)c4ccc(C(c5ccc(Cl)cc5)c5ccc(Cl)cc5)cc34)CC2)cc1` [Compound 99], the EC50 in test [1] was more than 10000 nM; in test [2], 345 nM.
On the same counts, the results for `O=C(O)c1ccc(N2CCC(c3c4cc(C(c5ccc(Cl)cc5)c5ccc(Cl)cc5)ccc4nn3C3CC3)CC2)cc1` [Compound 193] are 9300 nM and 474 nM.
Taken in the same sequence, the figures for `NC(=O)CCS(=O)(=O)N1CCC(c2c3cc(C(c4ccc(Cl)cc4)c4ccc(Cl)cc4)ccc3nn2C2CC2)CC1` [Compound 134] were more than 10000 nM and 216 nM.
Taken in the same sequence, the figures for `O=C(O)c1cccc(S(=O)(=O)N2CCC(Nc3n[nH]c4ccc(C(c5ccc(Cl)cc5)c5ccc(Cl)cc5)cc34)CC2)c1` [Compound 128] were more than 10000 nM and 1220 nM.
As for `NS(=O)(=O)c1cccc(C(=O)N2CCC(c3nn(CCO)c4ccc(C(c5ccc(Cl)cc5)c5ccc(Cl)cc5)cc34)CC2)c1` [Compound 71], the results for the EC50 in test [1] and in test [2] were more than 10000 nM and 68 nM, respectively.
Turning to `NC(=O)c1cccc(N2CCC(c3nn(C4CC4)c4ccc(C(c5ccc(Cl)cc5)c5ccc(Cl)cc5)cc34)CC2)c1` [Compound 179], the results for the EC50 in test [1] and in test [2] were more than 10000 nM and 93 nM, respectively.
On the same counts, the results for `O=S(=O)(N1CCC(c2nn(-c3cccc(C(F)(F)F)c3)c3ccc(C(c4ccc(Cl)cc4)c4ccc(Cl)cc4)cc23)CC1)C(F)(F)F` [Compound 57] are more than 10000 nM and 474 nM.
On the same counts, the results for `COc1ccccc1S(=O)(=O)N1CCC(c2c3cc(C(c4ccc(Cl)cc4)c4ccc(Cl)cc4)ccc3nn2C2CC2)CC1` [Compound 156, 5-(bis(4-chlorophenyl)methyl)-2-cyclopropyl-3-(1-(2-methoxyphenylsulfonyl)piperidin-4-yl)-2H-indazole] are more than 10000 nM and 1 nM.
Taken in the same sequence, the figures for `O=S(=O)(N1CCC(c2nn(-c3ccc(F)cc3)c3ccc(C(c4ccc(F)cc4)c4ccc(Cl)cc4)cc23)CC1)C(F)(F)F` (centres unmarked) [Compound 50] were more than 10000 nM and 59 nM.
With `O=C(O)c1ccc(CN2CCC(c3c4cc(C(c5ccc(Cl)cc5)c5ccc(Cl)cc5)ccc4nn3C3CC3)CC2)cc1` [Compound 256, 4-((4-(5-(bis(4-chlorophenyl)methyl)-2-cyclopropyl-2H-indazol-3-yl)piperidin-1-yl)methyl)benzoic acid], the EC50 was more than 10000 nM in test [1] and 30 nM in test [2].
In the case of `NC(=O)c1ccc(C(=O)N2CCC(c3nn(C4CC4)c4ccc(C(c5ccc(Cl)cc5)c5ccc(Cl)cc5)cc34)CC2)cc1` [Compound 104], the EC50 was more than 10000 nM in test [1] and 7 nM in test [2].
On the same counts, the results for `O=S(=O)(N1CCC(c2nn(-c3cccc(Cl)c3)c3ccc(C(c4ccc(Cl)cc4)c4ccc(Cl)cc4)cc23)CC1)C(F)(F)F` [Compound 47] are more than 10000 nM and 41 nM.
Taken in the same sequence, the figures for `O=C(CCO)N1CCC(c2nn(C3CC3)c3ccc(C(c4ccc(Cl)cc4)c4ccc(Cl)cc4)cc23)CC1` [Compound 108] were more than 10000 nM and 37 nM.
Taken in the same sequence, the figures for `Nc1ccc(C(c2ccc(Cl)cc2)c2ccc3[nH]nc(N4CCN(S(=O)(=O)C(F)(F)F)CC4)c3c2)cc1` (centres unmarked) [Compound 226] were 5500 nM and 8 nM.
In the case of `O=C(O)c1cccc(S(=O)(=O)N2CCC(c3n[nH]c4ccc(C(c5ccc(Cl)cc5)c5ccc(Cl)cc5)cc34)CC2)c1` [Compound 61], the EC50 in test [1] was more than 10000 nM; in test [2], 191 nM.
On the same counts, the results for `O=S(=O)(N1CCC(c2nn(-c3ccccc3Cl)c3ccc(C(c4ccc(Cl)cc4)c4ccc(Cl)cc4)cc23)CC1)C(F)(F)F` [Compound 48] are more than 10000 nM and 31 nM.
On the same counts, the results for `O=C(O)CCS(=O)(=O)N1CCC(c2c3cc(C(c4ccc(Cl)cc4)c4ccc(Cl)cc4)ccc3nn2C2CC2)CC1` [Compound 133] are more than 10000 nM and 3910 nM.
Take `COC(=O)c1ccc(S(=O)(=O)N2CCC(c3n[nH]c4ccc(C(c5ccc(Cl)cc5)c5ccc(Cl)cc5)cc34)CC2)cc1` [Compound 24]: the EC50 in test [1] was more than 10000 nM; in test [2], 151 nM.

The values are drawn from patent US9682940B2, “Indazole derivatives useful as CB-1 inverse agonists” (Janssen Pharmaceutica NV, priority 2015, dated 2017).
